Values quoted from earlier work as cited in patent US8383585B2, “Biomarkers for cardiodiabetes” (IKFE Institut fur Klinische Forschung und Entwicklung GmbH, priority 2008, dated 2013).

Tests used:
Parameters in all cases: key: ↑: An up arrow indicates an increase in biomarker levels; ↓: a down arrow indicates a decrease; ◯: “O” indicates substantially no change
Details in all cases: effect on biomarker level in a subject
adiponectin = tested on: adiponectin
hsCRP = tested on: hsCRP
intact proinsulin = tested on: intact proinsulin

For `CN(C)C(=N)N=C(N)N` [metformin], the adiponectin (adiponectin) is listed as “↑”, the hsCRP (hsCRP) is listed as “◯” and the intact proinsulin (intact proinsulin) is listed as “↓”.

In the case of insulin, the adiponectin (adiponectin) is given as “◯”, the hsCRP (hsCRP) is given as “◯” and the intact proinsulin (intact proinsulin) is given as “↓”.
